This is an account of results in patent EP4733303A1, “MUSCARINIC M4 RECEPTOR AGONIST AND USE THEREOF” (Haisco Pharmaceutical Group Co., Ltd., priority 2023, dated 2024).

Where only a bound is given, the exact number is not on record here.

Broadly, the EC50 is the concentration needed to bring the measured effect to its halfway point.

This experiment concerns the target T1, M4 receptor (Homo sapiens, UniProt P08173).
T1 construct: expressed in transfected cells; host or cells: CHO (M4-CHO cells)
T1 sequence (P08173 1-479): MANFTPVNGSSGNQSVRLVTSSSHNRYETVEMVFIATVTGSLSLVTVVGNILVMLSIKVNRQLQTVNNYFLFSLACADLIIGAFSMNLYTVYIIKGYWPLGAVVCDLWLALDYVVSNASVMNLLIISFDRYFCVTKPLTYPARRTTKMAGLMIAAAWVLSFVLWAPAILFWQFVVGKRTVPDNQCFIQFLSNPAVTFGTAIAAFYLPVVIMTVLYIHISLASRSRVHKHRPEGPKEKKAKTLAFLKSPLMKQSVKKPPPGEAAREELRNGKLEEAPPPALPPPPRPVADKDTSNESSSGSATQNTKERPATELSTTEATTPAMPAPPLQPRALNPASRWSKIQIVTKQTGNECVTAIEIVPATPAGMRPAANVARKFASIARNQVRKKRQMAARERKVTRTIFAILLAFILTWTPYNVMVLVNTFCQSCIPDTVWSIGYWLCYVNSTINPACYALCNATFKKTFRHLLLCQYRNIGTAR
As to the kind of experiment: PAM agonistic activity of compound on M4 receptor (FLIPR Calcium 6 assay in M4-CHO cells). It counts as cell-based. The conditions noted are these: with acetylcholine (Ach), final concentration 3 nM. Here is the method:
• 1). Cell plating: M4-CHO cells were digested, collected, and resuspended. After cell counting, the cell suspension was seeded into a 384-well cell plate at a density of: 1.2 × 10^4 cells/25 µL/well. The cell plate was then cultured in a 37°C, 5% CO2 incubator for about 16-20 h. • 2). Day 2: Assay Buffer was prepared according to the instructions of the FLIPR Calcium 6 Assay Kit. Component A (20×) was thawed to room temperature and diluted with the Assay Buffer to prepare a loading buffer (1×), which was stored at room temperature until use. • 3). The culture medium was removed from the cell plate. 40 µL of the loading buffer (1×) was quickly added to each well. The cell plate was then centrifuged and incubated at 37°C in the dark for 120 min. • 4). Working solutions of the positive control compound and the test compounds were prepared. An acetylcholine (Ach) agonist compound solution was prepared (final concentration: 3 nM). The PAM compound and the Ach agonist solution were mixed at a 1 : 1 ratio, and the mixture was transferred into a 384-well compound source plate at 20 µL per well. • 5). The cell plate, the compound source plate, and the pipette tips were placed into the corresponding positions within the FLIPR instrument. 10 µL of the diluted compound from step 4 was added into each experimental well using the FLIPR Tetra. Data was collected at the wavelength of 515 nm-575 nm. • 6). The signal values were plotted against the compound concentrations. Nonlinear regression analysis was performed using GraphPad Prism software for curve fitting and EC50 calculation.
The experimental results are shown in Table 1, where A represents EC50 < […]; B represents 100 nM ≤ EC50 < 500 nM, and C represents 500 nM ≤ EC50. Table 1. Agonistic activity of compounds on M4 receptor
In the case of `Cc1cc(C)c2c(n1)CN(C(=O)CC1CN(c3ccc4c(c3)C(F)C(F)C4)C1)C2` (racemic) [Compound 12, isomer 1], the EC50 was less than 0.1 µM.

Consider `Cc1cc(C)c2c(n1)CN(C(=O)CC1CN(c3ccc4c(c3)C(F)C(F)C4)C1)C2` (racemic) [Compound 12, isomer 2], for which the concentration for a half-maximal effect (EC50) is less than 0.1 µM. On to `Cc1cc(C2CCOC2)nc2c1CN(C(=O)CC1CN(c3ccnc(C(F)(F)F)c3)C1)C2` (single isomer, unassigned) [Compound 152], for which the EC50 is less than 0.1 µM. For `Cc1cc(C2CCOC2)nc2c1CN(C(=O)CC1CN(c3ccnc(C(F)(F)F)c3)C1)C2` (single isomer, unassigned) [Compound 153] the value was less than 0.1 µM; for `Cc1cc(C2CCOC2)nc2c1CN(C(=O)CC1CN(c3ccnc(OC4CC(F)(F)C4)c3)C1)C2` (single isomer, unassigned) [Compound 154], less than 0.1 µM.

With `Cc1cc(C2CCOC2)nc2c1CN(C(=O)CC1CN(c3ccnc(OC4CC(F)(F)C4)c3)C1)C2` (single isomer, unassigned) [Compound 155], the EC50 is less than 0.1 µM. For the molecule `Cc1cc(-c2cnn(C)c2)nc2c1CN(C(=O)CC1CN(c3ccnc(OC4CC(F)C4)c3)C1)C2` (single isomer, unassigned) [Compound 156], the EC50 was less than 0.1 µM.

On to `Cc1ccn(-c2cc(N3CC(CC(=O)N4Cc5nc(C6CCOC6)cc(C)c5C4)C3)ccn2)n1` (single isomer, unassigned) [Compound 185], for which the EC50 was less than 0.1 µM. For `Cc1ccn(-c2cc(N3CC(CC(=O)N4Cc5nc(C6CCOC6)cc(C)c5C4)C3)ccn2)n1` (single isomer, unassigned) [Compound 186], the concentration for a half-maximal effect (EC50) is less than 0.1 µM. As to `Cc1cc(C2CCOC2)nc2c1CN(C(=O)CC1CN(c3ccnc(-n4ccc(F)n4)c3)C1)C2` (single isomer, unassigned) [Compound 187], the EC50 was less than 0.1 µM.

Consider `Cc1cc(C)c2c(n1)CN(C(=O)CC1CN(c3ccnc(-c4ccsc4)c3)C1)C2` [Compound 1], for which the EC50 is less than 0.1 µM.

Consider `Cc1cc(C)c2c(n1)CN(C(=O)CC1CN(c3ccnc(-c4cnn(C(F)F)c4)c3)C1)C2` [Compound 5], for which the EC50 was less than 0.1 µM.

Consider `Cc1cc(C)c2c(n1)CN(C(=O)CC1CN(c3ccnc(-c4cc(C(F)(F)F)nn4C)c3)C1)C2` [Compound 6], for which the EC50 was less than 0.1 µM.

With `Cc1cc(C)c2c(n1)CN(C(=O)CC1CN(c3ccnc(-c4cnn(C)c4)c3)C1)C2` [Compound 7], the EC50 is less than 0.1 µM. For `Cc1cc(C)c2c(n1)CN(C(=O)CC1CN(c3ccnc(-c4cc(C(F)(F)F)n(C)n4)c3)C1)C2` [Compound 14] the value was less than 0.1 µM; for `Cc1cc(C)c2c(n1)CN(C(=O)CC1CN(c3ccnc(-c4ccnc(C(F)(F)F)c4)c3)C1)C2` [Compound 16], less than 0.1 µM; for `Cc1cc(C)c2c(n1)CN(C(=O)CC1CN(c3ccnc(-c4cnsc4)c3)C1)C2` [Compound 21], less than 0.1 µM. Take `Cc1cc(C)c2c(n1)CN(C(=O)CC1CN(c3ccnc(-c4ccnn4C)c3)C1)C2` [Compound 22]: the EC50 is less than 0.1 µM. Next, `Cc1csc(-c2cc(N3CC(CC(=O)N4Cc5nc(C)cc(C)c5C4)C3)ccn2)c1` [Compound 23]: less than 0.1 µM; `Cc1cc(C)c2c(n1)CN(C(=O)CC1CN(c3ccnc(NC(=O)C4CC4)c3)C1)C2` [Compound 24]: less than 0.1 µM. Regarding `Cc1cc(C)c2c(n1)CN(C(=O)CC1CN(c3ccnc(OC4CC(F)(F)C4)c3)C1)C2` [Compound 25], the EC50 was less than 0.1 µM. For `Cc1cc(C)c2c(n1)CN(C(=O)CC1CN(c3ccnc(-n4nccc4C)c3)C1)C2` [Compound 26], the EC50 was less than 0.1 µM. Regarding `Cc1cc(C)c2c(n1)CN(C(=O)CC1CN(c3ccnc(-c4cnoc4)c3)C1)C2` [Compound 27], the half-maximal effective concentration (EC50) is less than 0.1 µM. Turning to `Cc1cc(C)c2c(n1)CN(C(=O)CC1CN(c3ccnc(-n4nc(C)cc4C)c3)C1)C2` [Compound 30], the half-maximal effective concentration (EC50) was less than 0.1 µM. For `Cc1cc(C)c2c(n1)CN(C(=O)CC1CN(c3ccnc(Oc4cnn(C(F)F)c4)c3)C1)C2` [Compound 37], the 50% effective concentration (EC50) was less than 0.1 µM.
